Results on five compounds are retold here after ChEMBL document CHEMBL5036337 (J Nat Prod, 2021).

The nature of data set [1]: Half life in C57BL/6 mouse at 4000 mg/kg, po. The settings on record: in vivo.
The conditions of data set [2]: mouse, in vivo, iv, 500 mg/kg.
Data set [3] in a line: in vivo. The settings on record: C57BL/6, mouse, ip, 500 mg/kg.
Data set [4] deals with CAL-27. Description: cells. The settings on record: Homo sapiens, CAL-27, 72 h. Type of data set: functional, cell-based.
A short description of data set [5]: Half life in C57BL/6 mouse at 500 mg/kg, iv administered as Antitumor B. The settings on record: in vivo.
The conditions of data set [6]: in vivo, po, 4000 mg/kg, 24 h.
Data set [7] is described as follows: in vivo. As to conditions: C57BL/6, mouse, ip, 500 mg/kg. This is another data set of the same source.
Data set [8] can be described thus: in vivo. The settings on record: C57BL/6, mouse, ip, 500 mg/kg. This is another data set of the same source.
A short description of data set [9]: in vivo. The settings on record: C57BL/6, mouse, po, 500 mg/kg.
Data set [10] is described as follows: in vivo. As to conditions: C57BL/6, mouse, po, 500 mg/kg. This is another data set of the same source.
Data set [11] in a line: in vivo. As to conditions: C57BL/6, mouse, po, 4000 mg/kg.
The conditions of data set [12]: in vivo, ip, 500 mg/kg, 24 h.
The nature of data set [13]: Clearance in C57BL/6 mouse at 500 mg/kg, iv administered as Antitumor B. The settings on record: in vivo.
The conditions of data set [14]: in vivo, po, 500 mg/kg, 24 h.
The nature of data set [15]: Stability in mouse blood assessed as compound remaining measured at 20 degC for 8 hrs.
The conditions of data set [16]: in vivo, ip, 500 mg/kg, 168 h.
Data set [17] can be described thus: in vivo. As to conditions: C57BL/6, mouse, po, 500 mg/kg. The source holds these as a separate data set.
For data set [18] the following is noted: mouse, in vivo, iv, 500 mg/kg, 24 h.
For data set [19] the following is noted: in vivo, ip, 500 mg/kg, 168 h. This is another data set of the same source.
The conditions of data set [20]: mouse, in vivo, po, 500 mg/kg.
Data set [21] can be described thus: Volume of distribution in C57BL/6 mouse at 500 mg/kg, iv administered as Antitumor B. The settings on record: in vivo.
A short description of data set [22]: Half life in C57BL/6 mouse at 500 mg/kg, ip qd measured after 7 days. As to conditions: in vivo, 168 h.
Data set [23] is described as follows: in vivo. As to conditions: C57BL/6, mouse, po, 4000 mg/kg. The source holds these as a separate data set.
Data set [24] can be described thus: Stability in mouse blood assessed as compound remaining measured at - 80 degC for 4 months.
Data set [25] in a line: Stability in mouse blood assessed as compound recovery measured at 25 degC for 4 hrs.
The subject of data set [26] is SCC-9. As to the kind of experiment: cells. Type of data set: functional, cell-based. As to conditions: Homo sapiens, SCC-9, 72 h.
The nature of data set [27]: in vivo. As to conditions: C57BL/6, mouse, iv, 500 mg/kg.
The nature of data set [28]: in vivo. The settings on record: C57BL/6, mouse, po, 4000 mg/kg. This is another data set of the same source.
A short description of data set [29]: in vivo. The settings on record: C57BL/6, mouse, ip, 500 mg/kg. The source holds these as a separate data set.
The conditions of data set [30]: in vivo, ip, 500 mg/kg, 24 h. This is another data set of the same source.
Data set [31] can be described thus: in vivo. As to conditions: C57BL/6, mouse, iv, 500 mg/kg. This is another data set of the same source.
The nature of data set [32]: in vivo. The settings on record: C57BL/6, mouse, po, 4000 mg/kg. This is another data set of the same source.
Data set [33] can be described thus: Half life in C57BL/6 mouse at 500 mg/kg, po. The settings on record: in vivo.
A short description of data set [34]: in vivo. The settings on record: C57BL/6, mouse, po, 500 mg/kg. This is another data set of the same source.
For data set [35] the following is noted: C57BL/6, mouse, in vivo, ip, 500 mg/kg, 168 h.

Values after ≈ are worked out from the molar mass of the structure shown. A value given as a limit tells only on which side of the number the result lay.

`Oc1ccc2c(c1)OCC1c3cc4c(cc3OC21)OCO4` (configuration not stated): the half-life in data set [1] was 3.5 h; in [5], 4.9 h. Moreover, the AUC came out at 71.5 ng·h/mL in data set [2]; 25.5 ng·h/mL in data set [6] (mouse); 0.4 ng·h/mL in data set [14] (mouse); 51.8 ng·h/mL in [16] (mouse); 68.9 ng·h/mL in data set [18]. The compound also returned an AUC at 168 h in data set [3] of 47.4 ng·h/mL. Also, the figures for the IC50 in [4] and in [26] were 11.5 µg/mL (≈ 40.5 µM) and 94.9 µg/mL (≈ 334 µM), respectively. In data set [7], this compound registered an MRT at 24 h of 0.3 h. This compound came in with an MRT at 168 h in [8] of 8.4 h. In addition, the figures for the MRT last in data set [9], in data set [23] and in data set [27] were 0.6 h, 3.6 h and 3 h, respectively. The figures for the Tmax in data set [10], in data set [28] and in [30] (mouse) were 0.6 h, 0.7 h and 0.2 h, respectively. Moreover, the AUC(0-inf) in [11] was found to be 27.5 ng·h/mL. Also, the Cmax in [12] (mouse) amounted to 15.6 ng/mL; in [17], 0.5 ng/mL; in data set [19] (mouse) it was 17.2 ng/mL; in data set [31] it was 67.5 ng/mL; in data set [32] it was 16.4 ng/mL. This compound came in with a CL in data set [13] (mouse) of 10 mL/min/kg. In data set [15], the amount remaining at 8 h was 85%. Further, the F in [20] is 4.6%. Moreover, the distribution volume (Vd) in data set [21] was 4.1 L/kg. This compound registered a t1/2 in data set [22] (mouse) of 2.2 h. Besides, the share remaining at 2920 h in [24] stood at 85%. Moreover, the fraction remaining at 4 h in data set [25] was determined as 85%. In addition, the AUC at 24 h in data set [29] is 5.6 ng·h/mL.
For `COc1c2ccccc2nc2occc12` [DICTAMNINE], in data set [3], the area under the curve (AUC) at 168 h was determined as 23.2 ng·h/mL. For the same compound, the concentration for half-maximal inhibition (IC50) in [4] was 19.7 µg/mL (≈ 98.9 µM); in data set [26] it was 27.8 µg/mL (≈ 140 µM). In data set [7], the mean residence time (MRT) at 24 h was 0.4 h. This compound also showed an MRT at 168 h in data set [8] of 11.7 h. The fraction remaining at 8 h in data set [15] stood at 85%. In addition, the distribution volume (Vd) in [21] was 0.6 L/kg. The share remaining at 2920 h in data set [24] was found to be 85%. Moreover, in data set [25], the fraction remaining at 4 h came to 85%. The same compound yielded an area under the curve (AUC) at 24 h in [29] of 1 ng·h/mL.
In the case of `O=c1[nH]cc(F)c(=O)[nH]1` [FLUOROURACIL], the concentration for half-maximal inhibition (IC50) in data set [4] worked out at 0.5 µg/mL (≈ 3.84 µM); in data set [26] it was 12.7 µg/mL (≈ 97.6 µM).
`CC1=C2C(=O)O[C@@H](c3ccoc3)[C@]2(C)CCC1` [FRAXINELLONE]: the exposure (AUC) in [2] was found to be 166.8 ng·h/mL; in data set [6] (mouse), 1.1 ng·h/mL; in data set [18] it was 95.2 ng·h/mL. Further, the IC50 in [4] amounted to 22.4 µg/mL (≈ 96.4 µM); in data set [26], 43.4 µg/mL (≈ 187 µM). The compound further showed a half-life in data set [5] of 5.2 h. In addition, the mean residence time MRT at 24 h in data set [7] is 0.6 h. The Cmax in data set [12] (mouse) was determined as 4.1 ng/mL; in data set [31] it was 34.3 ng/mL; in [32], 4.7 ng/mL. This compound also showed a CL in [13] (mouse) of 6.7 mL/min/kg. Besides, in data set [15], the share remaining at 8 h was determined as 85%. Besides, the F in data set [20] came to 0.2%. In data set [21], this compound had a Vd of 2.9 L/kg. The MRT last in data set [23] came to 0.4 h; in data set [27], 3.2 h. In addition, the share remaining at 2920 h in data set [24] worked out at 85%. Further, the amount remaining at 4 h in data set [25] amounted to 85%. Moreover, the Tmax in data set [28] was found to be 0.5 h. For the same compound, in data set [29], the exposure (AUC) at 24 h is 2.7 ng·h/mL.
Consider `O=C1CCC[C@@H]2[C@H]3CCCN4CCC[C@@H](CN12)[C@@H]34` [MATRINE], for which the half-life was 7.5 h in [1], 7.5 h in data set [5] and 3.8 h in data set [33]. In addition, the AUC in data set [2] was found to be 5170.7 ng·h/mL; in [6] (C57BL/6, mouse), 3667.7 ng·h/mL; in data set [14] (C57BL/6, mouse) it was 120.5 ng·h/mL; in data set [16] (C57BL/6, mouse), 2254 ng·h/mL. Besides, the AUC at 168 h in [3] is 1650 ng·h/mL. Also, the IC50 in data set [4] is 21 µg/mL (≈ 84.6 µM); in data set [26], above 100 µg/mL. In data set [7], this compound gave a mean residence time (MRT) at 24 h of 5.3 h. Further, the MRT at 168 h in data set [8] is 8 h. Moreover, the mean residence time (MRT last) in data set [9] came to 3.6 h; in [23] it was 4.5 h; in [27], 1.8 h. The time to peak (Tmax) stood at 0.4 h in [10]; 0.7 h in data set [28]; 0.2 h in data set [30] (C57BL/6, mouse); 0.5 h in [35]. In addition, the total exposure AUC(0-inf) amounted to 5370 ng·h/mL in [11] and 124 ng·h/mL in data set [34]. Further, the highest concentration (Cmax) in data set [12] (C57BL/6, mouse) stood at 815.9 ng/mL; in data set [17] it was 53.8 ng/mL; in data set [19] (C57BL/6, mouse) it was 551.8 ng/mL; in [31], 3930 ng/mL; in [32], 709 ng/mL. The compound further gave a CL in data set [13] (C57BL/6, mouse) of 13 mL/min/kg. The fraction remaining at 8 h in data set [15] was determined as 85%. This compound also registered a Vd in [21] of 9.1 L/kg. Further, in [22] (C57BL/6, mouse), the t1/2 was determined as 8.2 h. The fraction remaining at 2920 h in data set [24] came to 85%. For the same compound, the fraction remaining at 4 h in [25] was 85%. Moreover, in data set [29], the area under the curve (AUC) at 24 h is 1480 ng·h/mL.
